The values that follow come from ChEMBL document CHEMBL1141026, “Synthesis, in vitro antitrypanosomal and antibacterial activity of phenoxy, phenylthio or benzyloxy substituted quinolones” (Bioorg Med Chem Lett, 2009).

The subject of assay [1] is Trypanosoma cruzi. Briefly: Antitrypanosomal activity against trypomastigotes of Trypanosoma cruzi Tulahuen C2C4 containing lacZ gene in rat L6 cells after 4 days. The class given is functional, organism-based. Particulars: L6, 96 h.
Assay [2] deals with Escherichia coli. In words: Antibacterial activity against Escherichia coli after 24 hrs by agar dilution method. The class given is functional. (In general: In agar dilution, organisms are placed on agar that contains the substance at set levels.)
For assay [3], the system named is Proteus mirabilis. In words: Antibacterial activity against Proteus mirabilis after 24 hrs by agar dilution method. It is filed as functional.
Assay [4] relates to Staphylococcus epidermidis. In words: Antibacterial activity against Staphylococcus epidermidis after 24 hrs by agar dilution method. It is filed as functional.
In assay [5] the test system is Streptococcus. In words: Antibacterial activity against gamma-streptococcus after 24 hrs by agar dilution method. It is filed as functional.
The test system of assay [6] is Staphylococcus. In words: Antibacterial activity against Staphylococcus albus after 24 hrs by agar dilution method. The class given is functional.
Assay [7] relates to Aeromonas hydrophila. In words: Antibacterial activity against Aeromonas hydrophila after 24 hrs by agar dilution method. It is filed as functional.
In assay [8] the test system is Enterococcus faecalis. In words: Antibacterial activity against Enterococcus faecalis after 24 hrs by agar dilution method. It is filed as functional.
The subject of assay [9] is Morganella morganii. Briefly: Antibacterial activity against Morganella morganii after 24 hrs by agar dilution method. It is filed as functional.
The subject of assay [10] is Staphylococcus aureus. In words: Antibacterial activity against Staphylococcus aureus after 24 hrs by agar dilution method. It is filed as functional.
The test system of assay [11] is Serratia marcescens. Briefly: Antibacterial activity against Serratia marcescens after 24 hrs by agar dilution method. It is filed as functional.
The test system of assay [12] is Klebsiella pneumoniae. In words: Antibacterial activity against Klebsiella pneumoniae after 24 hrs by agar dilution method. The class given is functional.
The subject of assay [13] is Citrobacter freundii. In words: Antibacterial activity against Citrobacter freundii after 24 hrs by agar dilution method. It is filed as functional.
The subject of assay [14] is Shigella boydii. Briefly: Antibacterial activity against Shigella boydii after 24 hrs by agar dilution method. The class given is functional.
Assay [15] has as its system Pseudomonas aeruginosa. In words: Antibacterial activity against Pseudomonas aeruginosa after 24 hrs by agar dilution method. It is filed as functional.
Assay [16] relates to Salmonella enterica subsp. enterica. Briefly: Antibacterial activity against Salmonella enteritidis after 24 hrs by agar dilution method. The class given is functional, Salmonella enterica subsp. enterica serovar Enteritidis.
The test system of assay [17] is Salmonella typhimurium. Briefly: Antibacterial activity against Salmonella Typhimurium after 24 hrs by agar dilution method. It is filed as functional, Salmonella enterica subsp. enterica serovar Typhimurium. Particulars: Salmonella enterica.
In assay [18] the test system is Streptococcus pneumoniae. Briefly: Antibacterial activity against Streptococcus pneumoniae after 24 hrs by agar dilution method. It is filed as functional.
Assay [19] has as its system Proteus vulgaris. Briefly: Antibacterial activity against Proteus vulgaris after 24 hrs by agar dilution method. It is filed as functional.
Assay [20] concerns Shigella sonnei. Briefly: Antibacterial activity against Shigella sonnei after 24 hrs by agar dilution method. The class given is functional.
The test system of assay [21] is Shigella flexneri. Briefly: Antibacterial activity against Shigella flexneri after 24 hrs by agar dilution method. It is filed as functional.
The test system of assay [22] is Trypanosoma cruzi. In words: Antitrypanosomal activity against Trypanosoma cruzi amastigotes at 250 uM.
In assay [23] the test system is Trypanosoma cruzi. In words: Antitrypanosomal activity against Trypanosoma cruzi DM28 epimastigotes at 200 ug/ml after 96 hrs. The class given is functional.

Converted amounts (≈) assume the structure as drawn.

What is called IC50 is the point on the concentration scale where inhibition reaches its midpoint. As for `CCn1cc(C(=O)O)c(=O)c2cc(F)c(Oc3ccc(C)cc3)c(Oc3ccc(C)cc3)c21`, the concentration for half-maximal inhibition (IC50) in assay [1] was 19.4 µg/mL (≈ 43.4 µM).

Molecule `CCn1cc(C(=O)O)c(=O)c2cc(F)c(Oc3ccc(Cl)cc3Cl)c(Oc3ccc(Cl)cc3Cl)c21` came in with an IC50 in assay [1] of 12.7 µg/mL (≈ 22.8 µM).

In assay [1], `CCn1cc(C(=O)O)c(=O)c2cc(F)c(Sc3ccc(F)cc3)c(Sc3ccc(F)cc3)c21` returned a half-maximal inhibitory concentration (IC50) of 6.2 µg/mL (≈ 12.7 µM).

As to `CCn1cc(C(=O)O)c(=O)c2cc(F)c(Sc3ccccc3)c(Sc3ccccc3)c21`, in [1], the IC50 was 19.3 µg/mL (≈ 42.7 µM).

Usually MIC stands for the lowest concentration found to suppress growth. Low readings indicate inhibition by little substance, high ones a need for much substance. Consider `CCn1cc(C(=O)O)c(=O)c2cc(F)c(Oc3ccc(C)cc3)c(F)c21`, for which the MIC in assay [2] is 25 µg/mL (≈ 69.6 µM); in assay [3] it was 25 µg/mL (≈ 69.6 µM); in assay [4], 6.25 µg/mL (≈ 17.4 µM); in assay [5], above 25 µg/mL; in assay [6] it was 12.5 µg/mL (≈ 34.8 µM); in assay [7], 25 µg/mL (≈ 69.6 µM). Further, the minimal inhibitory concentration (MIC) is above 25 µg/mL in [8]; 25 µg/mL (≈ 69.6 µM) in [9]; 0.78 µg/mL (≈ 2.17 µM) in assay [10]; above 25 µg/mL in [11]; 6.25 µg/mL (≈ 17.4 µM) in assay [12]; 12.5 µg/mL (≈ 34.8 µM) in assay [13]. Further, the MIC in assay [14] is 6.25 µg/mL (≈ 17.4 µM); in assay [15], above 25 µg/mL; in [16], 25 µg/mL (≈ 69.6 µM); in [17], 25 µg/mL (≈ 69.6 µM); in assay [18], 0.39 µg/mL (≈ 1.09 µM); in assay [19], above 25 µg/mL. Moreover, the minimum inhibitory concentration (MIC) in assay [20] was 12.5 µg/mL (≈ 34.8 µM); in assay [21], above 25 µg/mL. This molecule came in with an IC50 in assay [1] of 18.3 µg/mL (≈ 50.9 µM).

`CCn1cc(C(=O)O)c(=O)c2cc(Oc3ccc(C)cc3)c(Oc3ccc(C)cc3)c(Oc3ccc(C)cc3)c21` registered an IC50 in [1] above 90 µg/mL.

With `O=C(O)c1cn(C2CC2)c2c(Sc3ccccc3)c(Sc3ccccc3)c(F)cc2c1=O`, in [1], the IC50 is 17.8 µg/mL (≈ 38.4 µM).

The molecule `CCn1cc(C#N)c(=O)c2cc(F)c(Oc3ccccc3)c(Oc3ccccc3)c21` displayed an IC50 in assay [1] above 90 µg/mL.

With `C=Cn1cc(C(=O)O)c(=O)c2cc(F)c(OCc3ccccc3)c(OCc3ccccc3)c21`, in assay [1], half-maximal inhibition (IC50) required 6.2 µg/mL (≈ 13.9 µM).

For the molecule `CCn1cc(C(=O)OC)c(=O)c2cc(F)c(OCc3ccccc3)c(OCc3ccccc3)c21`, in assay [1], the IC50 stood at 3.8 µg/mL (≈ 8.23 µM).

Molecule `CCn1cc(C(=O)O)c(=O)c2cc(F)c(Oc3ccccc3)c(Oc3ccccc3)c21` registered a 50% inhibitory concentration (IC50) in assay [1] above 90 µg/mL.

In assay [1], `CCn1cc(C(=O)O)c(=O)c2cc(F)c(Sc3ccc(Cl)cc3)c(Sc3ccc(Cl)cc3)c21` yielded a half-inhibitory concentration (IC50) of 16.3 µg/mL (≈ 31.3 µM).

`O=C(Cn1ccnc1[N+](=O)[O-])NCc1ccccc1` [BENZNIDAZOLE] showed an IC50 in assay [1] of 0.83 µg/mL (≈ 3.19 µM).

Take `O=C(O)c1cn(C2CC2)c2cc(N3CCNCC3)c(F)cc2c1=O` [CIPROFLOXACIN]: the Activity in assay [22] worked out at 26%.

In the case of `CCn1cc(C(=O)O)c(=O)c2cc(F)c(N3CCNC(C)C3)c(F)c21` (stereo not given) [LOMEFLOXACIN], the MIC in assay [2] came out at 0.098 µg/mL (≈ 0.279 µM); in assay [3] it was 0.39 µg/mL (≈ 1.11 µM); in [4] it was 0.78 µg/mL (≈ 2.22 µM); in assay [5], 6.25 µg/mL (≈ 17.8 µM); in assay [6] it was 3.13 µg/mL (≈ 8.91 µM); in [7] it was 6.25 µg/mL (≈ 17.8 µM). In addition, the MIC in assay [8] amounted to 25 µg/mL (≈ 71.2 µM); in assay [9], 0.195 µg/mL (≈ 0.555 µM); in [10], 0.78 µg/mL (≈ 2.22 µM); in assay [11], 0.195 µg/mL (≈ 0.555 µM); in assay [12] it was 0.098 µg/mL (≈ 0.279 µM); in assay [13], 0.098 µg/mL (≈ 0.279 µM). Moreover, the MIC is 0.098 µg/mL (≈ 0.279 µM) in assay [14]; 3.13 µg/mL (≈ 8.91 µM) in assay [15]; 0.098 µg/mL (≈ 0.279 µM) in assay [16]; 0.195 µg/mL (≈ 0.555 µM) in assay [17]; 0.195 µg/mL (≈ 0.555 µM) in assay [18]; 0.78 µg/mL (≈ 2.22 µM) in assay [19]. Besides, the MIC turned out to be 0.098 µg/mL (≈ 0.279 µM) in assay [20] and 0.78 µg/mL (≈ 2.22 µM) in assay [21].

Molecule `CCn1cc(C(=O)O)c(=O)c2ccc(C)nc21` [NALIDIXIC ACID] displayed an Activity in [23] of 60%.
